From patent US20240307362A1 (priority 2019, published 2024)
Like-named read-outs stand apart in the source and are kept apart here.

What was measured:
human Bub1 = human Bub1 (Homo sapiens (Human), UniProt O43683); assay: Bub1 high ATP kinase assay (TR-FRET); type: biochemical; details: read-out: Bub1 high ATP (2 mM) IC50; 2 mM ATP
From the text: Bub1-inhibitory activity of compounds of the present invention at a high ATP concentration was quantified employing the Bub1 TR-FRET high ATP kinase assay as described in the following paragraphs.
N-terminally His6-tagged recombinant catalytic domain of human Bub1 (amino acids 704-1085), expressed in insect cells (Hi5) and purified by Ni-NTA affinity chromatography and subsequent size exclusion chromatography, was used as enzyme.

Ba/F3-EGFR-WT = assay: Ba/F3 cell survival assay, WT EGFR; type: cell-based
[1] = test system: Ba/F3-EGFR-V769_D770insASV; assay: Ba/F3 cell survival assay, EGFR V769_D770insASV; type: cell-based; details: 48 h, read-out: BA/F3 (ASV) IC50
Procedure: (§1) 293T cells from ATCC were transfected with pBABEpuro expression constructs for mutant EGFR (V769_D770insASV, D770_N771insNPG, N771_P772insH, H773_V774insNPH, E746_A750del, L858R, D770_N771 insSVD C797S, E746_A750del C797S, L858R C797S, L861Q) or mutant ERBB2 (A775_G776insYVMA) and pCL-Eco packaging vector using Fugene-6 transfection reagent from Promega. Plates were incubated at 37° C. for 48 h. Retrovirus was harvested by filtering the media supernatant through a 0.45 μm filter.
(§2) Ba/F3 cells purchased from DSMZ were grown in RPMI+10% FBS+10 ng/mL IL-3 and infected with filtered retroviral supernatant at a 1:2 dilution. Polybrene was added to a concentration of 8 μg/mL, plates were spun for 90 min, and incubated overnight at 37° C. 2 μg/mL puromycin was added to the infected cells 24 h after infection and cells were continually grown in the presence of puromycin and 10 ng/mL IL-3. Following stably expressing Ba/F3 cell lines were generated: Ba/F3-EGFR-V769_D770insASV, Ba/F3-EGFR-D770_N771insNPG, Ba/F3-EGFR-N771_P772insH, Ba/F3-EG, Ba/F3-EGFR-H773_V774insNPH, Ba/F3-EGFR-E746_A750del, Ba/F3-EGFR-L858R, Ba/F3-EGFR-D770_N771 insSVD C797S, Ba/F3-EGFR-E746_A750del C797S, Ba/F3-EGFR-L858R C797S, Ba/F3-EGFR L861Q and Ba/F3-ERBB2-A775_G776insYVMA (Ba/F3—vector-control).
(§3) For cell survival assays, Ba/F3 cells were grown to a density of 1-2 million cells per mL, spun down and resuspended in media without IL-3, and replated at a concentration 200,000-500,000 cells per mL. The cells ectopically expressing WT EGFR plated with 10 ng/mL Millipore Culture grade EGF and Ba/F3 cells containing mutant EGFR or Mutant ERBB2 were cultivated without EGF. The cells ectopically expressing pBABEpuro empty vector were plated with 10 ng/mL IL-3.
(§4) 2 days later, cells were plated in 50 μL in a 384 well plate at a concentration of 4000 cells per well for cells assayed in the absence of IL-3 and 2000 cells per well for cells assayed in the presence of IL-3. 100 nL of compound was added to each well using a 100 nL pin head, and plates were incubated at 37° C. for 48 h.
(§5) Cell viability was measured by adding 20 μL of Cell Titer-Glo Luminescent Cell Viability Reagent diluted 1:3 in PBS. Plates were sealed with Perkin Elmer Top-Seal, inverted several times to mix, and immediately centrifuged at 1000 rpm for 2 min. Plates were incubated in low light conditions for 8-10 min and luminescence was measured.

Ba/F3-EGFR-N771_P772insH = assay: Ba/F3 cell survival assay, EGFR N771_P772insH; type: cell-based; details: 48 h, read-out: BA/F3 (EGFR N771— P772insH) IC50
Procedure: as §1, §2, §3, §4, §5

[2] = test system: Ba/F3-EGFR-E746_A750del C797S; assay: Ba/F3 cell survival assay, EGFR E746_A750del C797S; type: cell-based; details: 48 h, read-out: BA/F3 (EGFR E746_A750del C797S) IC50
Procedure: as §1, §2, §3, §4, §5

[3] = test system: Ba/F3-ERBB2-A775_G776insYVMA; assay: Ba/F3 cell survival assay, ERBB2 A775_G776insYVMA; type: cell-based; details: Mus musculus, BaF3, 48 h, read-out: BA/F3 (ERBB2 A775_G776 insYVMA) IC50
Procedure: as §1, §2, §3, §4, §5

HCC-827 cells = assay: HCC-827 cell proliferation assay (EGFRex19del); type: cell-based; details: Homo sapiens, HCC827, 72 h, read-out: HCC-827 IC50
Procedure: HCC-827 cells were purchased from ATCC. […] cells per well were seeded in growth medium (RPMI1640, 10% FCS) in a 384-well plate (CORNING #3571). Seed reference plate for time zero determination on the same day. All plates were incubated overnight at 37° C. After 24 hours, test compound were added in 7-step dilution using HP Compound printer and incubated at 37° C. for 72 h. After 3 days, 30 μL/well CTG solution (Promega Cell Titer Glo solution; catalog #G755B and G756B) were added to each well, incubated for 30 minutes and the plate were read on PheraStar. Proliferation is calculated after subtracting time zero luminescence values from day 4 values and comparing to untreated wells.
The IC50 values were determined using the four parameter fit.

[4] = read-out: BA/F3 (wild type) IC50, cell viability, Cell Titer-Glo, 48 h, with 10 ng/mL EGF, without IL-3

human Bub1, sequence (O43683 704-1085): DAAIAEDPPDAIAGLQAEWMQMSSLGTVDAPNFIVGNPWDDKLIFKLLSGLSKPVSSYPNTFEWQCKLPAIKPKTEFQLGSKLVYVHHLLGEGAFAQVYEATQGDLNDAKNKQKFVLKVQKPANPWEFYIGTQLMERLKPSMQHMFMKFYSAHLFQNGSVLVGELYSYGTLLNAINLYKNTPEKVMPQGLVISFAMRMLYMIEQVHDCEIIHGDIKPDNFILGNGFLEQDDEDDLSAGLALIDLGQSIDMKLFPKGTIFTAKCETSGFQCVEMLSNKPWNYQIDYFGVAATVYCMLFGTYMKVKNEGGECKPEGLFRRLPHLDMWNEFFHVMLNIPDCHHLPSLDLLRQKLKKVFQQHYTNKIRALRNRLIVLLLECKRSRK

Structure (SMILES): COc1c(Cl)cccc1Nc1c(-c2ccncc2OCCC2CCO2)[nH]c2c1C(=O)NCC2 (single isomer, unassigned; (-)) [Example 26, (−)-3-(3-chloro-2-methoxyanilino)-2-{3-[2-(oxetan-2-yl)ethoxy]pyridin-4-yl}-1,5,6,7-tetrahydro-4H-pyrrolo[3,2-c]pyridin-4-one]
- IC50 (human Bub1): 1540 nM
- IC50 (Ba/F3-EGFR-WT; [4]): 204 nM
- IC50 [1]: 9.36 nM
- IC50 (Ba/F3-EGFR-N771_P772insH): 3.7 nM
- IC50 [2]: 0.27 nM
- IC50 [3]: 8.39 nM
- IC50 (HCC-827 cells): < 3 nM

Structure (SMILES): COc1c(Cl)cccc1Nc1c(-c2ccncc2OC[C@@H]2CCO2)[nH]c2c1C(=O)NCC2 [Example 2, 3-(3-chlor-2-methoxyanilino)-2-{3-[(2S)-oxetan-2-ylmethoxy]pyridin-4-yl}-1,5,6,7-tetrahydro-4H-pyrrolo[3,2-c]pyridin-4-on]
- IC50 (human Bub1): > 20000 nM
- IC50 (Ba/F3-EGFR-WT; Mus musculus, BaF3, 48 h, read-out: BA/F3 (wild type) IC50, cell viability, Cell Titer-Glo, 48 h, with 10 ng/mL EGF, without IL-3): 282 nM
- IC50 [1]: 9.73 nM
- IC50 (Ba/F3-EGFR-N771_P772insH): 5.59 nM
- IC50 [2]: 0.328 nM
- IC50 [3]: 11.4 nM
- IC50 (HCC-827 cells): < 3 nM

Structure (SMILES): COc1c(Cl)cccc1Nc1c(-c2ccncc2OCC2(C)CCO2)[nH]c2c1C(=O)NCC2 (single isomer, unassigned; (+)) [Example 48, (+)-3-(3-chloro-2-methoxyanilino)-2-{3-[(2-methyloxetan-2-yl)methoxy]pyridin-4-yl}-1,5,6,7-tetrahydro-4H-pyrrolo[3,2-c]pyridin-4-one]
- IC50 (human Bub1): 10300 nM
- IC50 (Ba/F3-EGFR-WT; [4]): 350 nM
- IC50 [1]: 11.4 nM
- IC50 (Ba/F3-EGFR-N771_P772insH): 5.13 nM
- IC50 [2]: 0.34 nM
- IC50 [3]: 12.9 nM
- IC50 (HCC-827 cells): < 3 nM

Structure (SMILES): COc1c(Cl)cccc1Nc1c(-c2ccncc2OCC2OCC2(C)C)[nH]c2c1C(=O)NCC2 (single isomer, unassigned; (+)) [Example 50, (+)-3-(3-chloro-2-methoxyanilino)-2-{3-[(3,3-dimethyloxetan-2-yl)methoxy]pyridin-4-yl}-1,5,6,7-tetrahydro-4H-pyrrolo[3,2-c]pyridin-4-one]
- IC50 (human Bub1): > 20000 nM
- IC50 (Ba/F3-EGFR-WT; [4]): 349 nM
- IC50 [1]: 16.4 nM
- IC50 (Ba/F3-EGFR-N771_P772insH): 7.64 nM
- IC50 [2]: 0.519 nM
- IC50 [3]: 12.4 nM
- IC50 (HCC-827 cells): < 3 nM
